# Where two headings read alike, the source gives them in different places.
# Experiments:
# mice = assay: in vivo
# Method: (§1) Determination of the LD50 Value on Mice
# (§2) Animal: male CDI mice (starved) weighing 20 to 22 g each at the time of treatment.
# (§3) Observation period: 2 weeks.
# (§4) Vehicle: 1 to 2% of Tween-80 in distilled water or in physiological saline, respectively.
# (§5) Treatment volume 0.1 ml/10 g of body-weight.
# in vivo = conditions: mouse, in vivo
# Method: as §1, §2, §3, §4, §5
# [1] = system: right ventricular papillary muscle; assay: Measurement of the contractile force in vitro; set-up: species or system rabbits; conditions: 1 Hz; expected therapeutic concentration
# Method: The method used is essentially in agreement with the method of Virag et al. [Gen. Pharmac. 27, pp. 551-556 (1996)].
# Papillary muscles of hearts of rabbits (weighing 2 to 3 kg each) were prepared and placed into an organ bath (37° C.) containing modified Tyrode's nutrient medium. The preparations were stimulated by point-stimulation with a basal frequency of 1 Hz. The contractile force was measured by using an auxotonic method. The compounds under test were directly added into the organ bath after dilution of the stock solution according to the final concentration desired. The effects of compounds were observed after an incubation period of 30 to 45 minutes.
# Using this method used information can be obtained concerning the direct cardiac effects of the compounds investigated. The effect of the compound of Example 15 on the contractile force is illustrated on the right ventricular papillary muscle at a frequency of 1 Hz in FIG. 2.
# dog Purkinje's fibres = assay: Effect on early after-depolarization induced by dofetilide and BaCl2; conditions: 2 μM; EAD induced by 1 μM dofetilide and 20 μM BaCl2
# Method: An early after-depolarization (EAD) was induced on dog Purkinje's fibres by the simultaneous use of 1 μM dofetilide and 20 μM BaCl2. These EAD-s were abolished by the addition of the compound (2 μM) of Example 15.
# [2] = system: isolated right ventricular trabecule of dog heart; assay: Extracellular electrophysiological measurements: impulse conduction time and effective refractory period; set-up: species or system mongrel dogs; conditions: for activation at 2 µM / activation at 10 µM: Canis lupus familiaris
# Method: Right ventricular trabecules were prepared from the heart of mongrel dogs (weighing 5 to 10 kg each). The surviving heart pieces were placed into an organ bath (37° C.) containing modified Tyrode's nutrient medium and excited by point stimulation with a basal frequency of 1 Hz. Extracellular bipolar platinum electrodes were placed on the surface of the preparations, by means of which the propagation of the superficial potentials were registered; thus, the determination of the time of impulse conduction or the rate of impulse conduction, respectively, and the effective refractory period (ERP) became possible. During our experiments,the frequency of stimulation was temporarily varied from 0.5 Hz up to 3 Hz. The tested compounds were directly added to the organ bath after dilution of the stock solution according to the desired final concentration.
# [3] = system: Purkinje's fibres isolated from dog heart; assay: Intracellular microelectrode technique: action potential parameters, Purkinje's fibres; set-up: species or system mongrel dogs
# Method: The method used is essentially in agreement with the method of Papp et al. [J. Cardiovascular Pharmacol. Ther. 1, 287-296 (1996)].
# Right ventricular papillary muscle and Purkinje's fibres were prepared from the hearts of mongrel dogs (weighing 5 to 10 kg each). The preparations were placed into an organ bath (37° C.) containing modified Tyrode's nutrient medium. The preparations were excited by a basal frequency of 1 Hz. During the experiments, the frequency of stimulation was varied under broad limits by a computer-guided stimulator. The intracellular action potentials were registered by using glass capillary microelectrodes filled with 3 N potassium chloride solution (standard intracellular microelectrode techniques). The resting potential (RP), the amplitude of the action potential (APA) as well as the duration of the action potential (APD) were measured by using an IBM 386 compatible computer by means of an own-developed software. The compounds under test were directly added into the organ bath after dilution of the stock solutions according to the final concentrations desired. The effects of the compounds were observed after an incubation time of 30 to 40 minutes.
# [4] = 1 Hz, read-out: Prolongation (%) of ERP
# [5] = 1 Hz, read-out: Prolongation (%) of impulse conduction time
# [6] = 3 Hz, read-out: Prolongation (%) of ERP
# [7] = 3 Hz, read-out: Prolongation (%) of impulse conduction time
structure (smiles),measurement,setting,value
"Cc1cccc(C)c1OCC(C)N(C)CCc1ccc(NS(C)(=O)=O)cc1.Cl (stereo not drawn) [Example 15, N-[4-[2-[N-Methyl-N-[2-(2,6-dimethylphenoxy)-1-methylethyl]amino]ethyl]phenyl]methanesulfonamide hydrochloride]",cause of death,mice; i.p.,respiratory paralysis
same,Mortality,mice; i.p. 150 mg/kg,1/10
same,Mortality,mice; i.p. 175 mg/kg,7/10
same,Mortality,mice; i.p. 200 mg/kg,9/10
same,cause of death,mice; p.o.,respiratory paralysis
same,Mortality,mice; p.o. 500 mg/kg,0/5
same,Mortality,mice; p.o. 600 mg/kg,2/5
same,Mortality,mice; p.o. 700 mg/kg,5/5
same,LD50 at 336 h,in vivo; ip,170 mg/kg
same,LD50 at 336 h,in vivo; po,550 to 650 mg/kg
same,negative inotropic action (in words),[1],did not induce any negative inotropic action
same,effect on early after-depolarization (EAD) (in words),dog Purkinje's fibres,abolished
same,activation at 2 µM,[2]; [4],11.6%
same,activation at 2 µM,[2]; [5],11.1%
same,activation at 2 µM,[2]; [6],13.6%
same,activation at 2 µM,[2]; [7],13.4%
same,activation at 10 µM,[2]; [4],22.8%
same,activation at 10 µM,[2]; [5],42%
same,activation at 10 µM,[2]; [6],31.3%
same,activation at 10 µM,[2]; [7],73.8%
same,effect on effective refractory period (in words),[2]; concentrations of Table 1,simultaneous prolongation of the effective refractory period (ERP)
same,effect on impulse conduction (in words),[2]; concentrations of Table 1,significantly prolonged the time of impulse conduction in a frequency-dependent manner
same,effect on APD on Purkinje's fibres (in words),[3]; 2 μM and 5 μM,abbreviated APD on Purkinje's fibres of the dog
same,APA (amplitude of the action potential),"[3]; 2 μM, N 3",112.7 ± 3.9 mV
same,APD50 (time of 50% repolarization),"[3]; 2 μM, N 3",180.7 ± 14.8 ms
same,APD90 (time of 90% repolarization),"[3]; 2 μM, N 3",400.0 ± 47.4 ms
same,MDP (maximal diastolic potential),"[3]; 2 μM, N 3",-81.7 ± 2.4 mV
same,Vmax (maximum rate of depolarization),"[3]; 2 μM, N 3",392.3 ± 23.7 V/s
same,APA,"[3]; 5 μM, 1 Hz, N = 6",111.0 ± 2.4 mV
same,APD50,"[3]; 5 μM, 1 Hz, N = 6",121.3 ms
same,APD90,"[3]; 5 μM, 1 Hz, N = 6",279.0 mS
same,RP,"[3]; 5 μM, 1 Hz, N = 6",-86.0 ± 2.0 mV
same,Vmax,"[3]; 5 μM, 1 Hz, N = 6",439.3 V/s

# — US6265445A, “Antiarrhythmic compounds” (priority 1997, dated 2001)
